Series [1] deals with mice treated with FSL-1 post TBI. Put plainly: Late effects of radiation: long-term survivors, MRI of tissues. Type of series: in vivo. The following applies: survivors of more than 600 days. The text has this:
MRI was used to detect multiple tissues in these survivors, such as brain, gut, kidney or spleen. […] FSL-1 is found to accelerate hematopoietic cell recovery in bone marrow, spleen and periphery, and augments systemic levels of hematopoiesis stimulating factors (G-CSF).

The subject of a further series is B16 melanoma tumor cells. Put plainly: B16 melanoma tumor model with cisplatin chemotherapy. Here is the method: The impact of combining FSL-1 treatment with chemotherapy as a therapeutic against cancer was also tested. In this study, B16 melanoma tumor cells (50,000) in matrigel matrix were implanted into the flank (SC) of wild type animals and were allowed to grow 10 days to palpation (˜3-5 mm in diameter). Mice were then treated with chemotherapy agent cisplatin (intravenous IV, 100 μg/mouse) with and without FSL-1 (SC, 40 μg/mouse). Changes in tumor volume (ellipsoidal volume calculation of ½ width*width*length, mm^3) were monitored along with changes in body weight and condition.

Series [2] concerns irradiated male C57BL/6 mice. Kind of series: Radiomitigation activity of TLR2 ligands after TBI. Type of series: in vivo. The following applies: IP injection 24 hr post TBI. Here is the method: The radiomitigation activity of TLR2 ligands was delineated (FIGS. 1C and 1D), including FSL-1, by irradiating male C57BL/6 mice and treating (IP injections) with either FSL-1, Pam2CSK4 (Pam2Cys-SKKKK, TLR2/6 ligand), or Pam3CSK4 (Pam3Cys-SKKKK, TLR1/2 ligand) at 24 hours (hr) post TBI.

The test system of another series is irradiated mice. The following applies: only when injected subcutaneously daily from day 1 to 16 (16 doses); cited from earlier work.
The subject of series [3] is C57BL/6 mice exposed to 9.2 Gy gamma radiation (total body irradiation). Kind of series: Survival and clinical score after lethal total body irradiation, TLR ligands given IP. Type of series: in vivo. The following applies: 9.2 Gy TBI, IP injection one day after radiation, survival over 30 days. Here is the method:
To examine the role of TLR ligands as radio-mitigators, FSL-1 (TLR2/6 ligand) was first compared with other TLR ligands (FIGS. 1A and 1B). In this experiment, C57BL/6 mice were exposed to 9.2 Gy gamma radiation (total body irradiation, or TBI) using 137-Cesium irradiator and then the mice were treated with TLR ligands via intraperitoneal (IP) injections one day after radiation. The impact of CpG-ODN2395 (CpG, TLR9 agonist), Flagellin FliC (Fla, TLR5 agonist), MPLA (TLR4 agonist) or FSL-1 (Pam2[…], TLR2/6 agonist) in comparison to mice treated with physiological water (no treatment, NT) was examined. Survival was monitored over 30 days and clinical scores were recorded. […] Eight independent experiments have been completed, each showing the survival rate of FSL-1-treated mice ranged from 50% to 100% with the mean rate of 80%. The lowest one is presented herein.
The Clinical Score is based on changes to body condition that included body weight, body temperature, physical appearance, grooming, posture, activity/behavior, appetite and hydration. Supplementation with wet feed, subcutaneous fluids, long sipper tubes, were provided as needed.

“Also recorded” adds a separate entry of the source. Peptide text beside a SMILES is read from it. * marks the point of attachment. X1 = CCCCCCCCCCCCCCCC(=O)OCC(C*)OC(=O)CCCCCCCCCCCCCCC

Consider `CCCCCCCCCCCCCCCC(=O)OCC(CSC[C@H](N)C(=O)NCC(=O)N[C@@H](CC(=O)O)C(=O)N1CCC[C@H]1C(=O)N[C@@H](CCCCN)C(=O)N[C@@H](Cc1c[nH]cn1)C(=O)N1CCC[C@H]1C(=O)N[C@@H](CCCCN)C(=O)N[C@@H](CO)C(=O)N[C@@H](Cc1ccccc1)C(=O)O)OC(=O)CCCCCCCCCCCCCCC` (stereo partly shown) [FSL-1] (H-C(X1)GDPKHPKSF-OH), for which, in series [1], the “MRI of tissues (brain, gut, kidney, spleen)” value is “no physiologic changes” and the “symptoms of disease in long-term survivors” value is listed as “no symptoms of any diseases; also recorded: without any symptoms of leukemia or other diseases”. Further, the body weight entry in the series with B16 melanoma tumor cells (mouse, in vivo) is reported as “maintained weight for nearly 2 weeks following treatment”.
With Pam2Cys-SKKKK [Pam2CSK4], the survival result in series [2] is given as “promoted survival”.
On to Pam3Cys-SKKKK [Pam3CSK4], for which the survival entry in series [2] was “promoted survival”.
With `N.N.[Cl][Pt][Cl]` [cisplatin], the “animals reaching the 2 cm tumor diameter endpoint” value in the series with B16 melanoma tumor cells (by day 19) is listed as “two”. In the series on B16 melanoma tumor cells (mouse, in vivo), the body condition result was “reduced body condition” and the body weight entry is “dramatically lost weight after day 19”.

B1: G-CSF: granulocyte colony-stimulating factor, approved radiation countermeasure (protein, UniProt P09919 31-207, looked up)
Granulocyte …: TPLGPASSLPQSFLLKCLEQVRKIQGDGAALQEKLVSECATYKLCHPEELVLLGHSLGIPWAPLSSCPSQALQLAGCLSQLHSGLFLYQGLLQALEGISPELGPTLDTLQLDVADFATTIWQQMEELGMAPALQPTQGAMPAFASAFQRRAGGVLVASHLQSFLEVSYRVLRHLAQP
Regarding B1, in the series with irradiated mice, the “survival of irradiated mice” value was “increase the survival”.

B2: Flagellin FliC: TLR5 agonist (protein, UniProt P06179 2-495, looked up)
Flagellin: AQVINTNSLSLLTQNNLNKSQSALGTAIERLSSGLRINSAKDDAAGQAIANRFTANIKGLTQASRNANDGISIAQTTEGALNEINNNLQRVRELAVQSANSTNSQSDLDSIQAEITQRLNEIDRVSGQTQFNGVKVLAQDNTLTIQVGANDGETIDIDLKQINSQTLGLDTLNVQQKYKVSDTAATVTGYADTTIALDNSTFKASATGLGGTDQKIDGDLKFDDTTGKYYAKVTVTGGTGKDGYYEVSVDKTNGEVTLAGGATSPLTGGLPATATEDVKNVQVANADLTEAKAALTAAGVTGTASVVKMSYTDNNGKTIDGGLAVKVGDDYYSATQNKDGSISINTTKYTADDGTSKTALNKLGGADGKTEVVSIGGKTYAASKAEGHNFKAQPDLAEAAATTTENPLQKIDAALAQVDTLRSDLGAVQNRFNSAITNLGNTVNNLTSARSRIEDSDYATEVSNMSRAQILQQAGTSVLAQANQVPQNVLSLLR
Consider B2, for which the “protection from radiation-induced death” value in series [3] is listed as “did not show any protection”.

The values above are taken from patent US11918621B2, “Methods and treatments using toll-like receptor agonists to mitigate hematopoietic myeloid loss, increase gastrointestinal recovery and reduce tumor growth” (priority 2017, dated 2024).
